Laboratory results published in patent US20060019997A1, “Triazole compounds and their use as metabotropic glutamate receptor antagonists” (AstraZeneca AB, priority 2004, published 2006).

Target: T1, human mGluR5d (Homo sapiens, UniProt P41594)
T1 construct: expressed in transfected cells
Test: FLIPR analysis of [Ca2+]i mobilization (Group I receptor antagonist activity)
Format: cell-based
Settings: cells expressing human mGluR5d; antagonist block of agonist challenge
Text: The pharmacological properties of the compounds of the invention can be analyzed using standard assays for functional activity. Examples of glutamate receptor assays are well known in the art as described in for example Aramori et al., Neuron 8:757 (1992), Tanabe et al., Neuron 8:169 (1992), Miller et al., J. Neuroscience 15: 6103 (1995), Balazs, et al., J. Neurochemistry 69:151 (1997). The methodology described in these publications is incorporated herein by reference. Conveniently, the compounds of the invention can be studied by means of an assay that measures the mobilization of intracellular calcium, [Ca^2+]i in cells expressing mGluR5. […]
(§1) FLIPR experiments were done using a laser setting of 0.800 W and a 0.4 second CCD camera shutter speed. […] After each addition of the compound, the fluorescence signal was sampled 50 times at 1 second intervals followed by 3 samples at 5 second intervals. Responses were measured as the peak height of the response within the sample period. […]
as §1, with “speed with excitation and emission wavelengths of 488 nm and 562 nm, respectively.” for “speed.”, “addition” for “addition of the compound,”

T1 sequence (P41594 21-942 isoform P41594-3 limits assumed): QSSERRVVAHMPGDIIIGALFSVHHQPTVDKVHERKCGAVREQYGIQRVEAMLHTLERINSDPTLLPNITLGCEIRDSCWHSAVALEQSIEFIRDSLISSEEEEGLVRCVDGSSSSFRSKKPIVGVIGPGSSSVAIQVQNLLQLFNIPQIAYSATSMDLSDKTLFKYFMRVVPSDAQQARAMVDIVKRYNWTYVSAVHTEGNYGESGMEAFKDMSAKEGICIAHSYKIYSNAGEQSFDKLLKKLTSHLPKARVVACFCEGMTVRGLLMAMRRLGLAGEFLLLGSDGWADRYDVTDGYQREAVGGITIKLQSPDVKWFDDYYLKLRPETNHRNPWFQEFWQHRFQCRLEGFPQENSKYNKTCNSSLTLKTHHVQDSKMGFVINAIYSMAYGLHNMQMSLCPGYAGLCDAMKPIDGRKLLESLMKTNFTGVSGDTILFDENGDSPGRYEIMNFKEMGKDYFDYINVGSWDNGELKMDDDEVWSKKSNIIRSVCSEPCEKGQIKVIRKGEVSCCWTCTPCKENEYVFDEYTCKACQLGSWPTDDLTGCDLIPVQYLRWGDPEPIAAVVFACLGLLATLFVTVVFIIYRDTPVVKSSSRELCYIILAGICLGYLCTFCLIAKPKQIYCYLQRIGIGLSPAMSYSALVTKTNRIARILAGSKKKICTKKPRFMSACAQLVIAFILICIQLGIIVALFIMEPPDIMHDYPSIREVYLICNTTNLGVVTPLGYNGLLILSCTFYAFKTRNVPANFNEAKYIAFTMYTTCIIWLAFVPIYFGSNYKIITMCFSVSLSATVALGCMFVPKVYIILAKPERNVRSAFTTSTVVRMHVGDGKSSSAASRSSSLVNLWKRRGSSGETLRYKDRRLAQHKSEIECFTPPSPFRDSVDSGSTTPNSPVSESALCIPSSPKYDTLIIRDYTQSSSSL

IC50 [nM] | SMILES
27 | CC(Oc1nnc(-c2ccncc2)n1C)c1cnn(-c2cccc(Cl)c2)n1 (centres unmarked) [4-(5-{1-[2-(3-chlorophenyl)-2H-1,2,3-triazol-4-yl]ethoxy}-4-methyl-4H-1,2,4-triazol-3-yl)pyridine]
265 | Clc1cccc(-n2cc(CSc3nnc(-c4ccncc4)n3C3CC3)nn2)c1 [4-{5-[1-(3-Chloro-phenyl)-1H-[1,2,3]triazol-4-ylmethylsulfanyl]-4-cyclopropyl-4H-[1,2,4]triazol-3-yl}-pyridine]
